Literature values in US8609693B2, “Methods of administration of thrombopoietin agonist compounds” (GlaxoSmithKline LLC, priority 2009, dated 2013).

System: platelet counts
Settings: 50 mg, 75 mg and 100 mg dose; patients receiving carboplatin/paclitaxel

CC1=NN(c2ccc(C)c(C)c2)C(=O)/C1=N\Nc1cccc(-c2cccc(C(=O)O)c2)c1O [Compound B, 3′-[(2Z)-[1-(3,4-dimethylphenyl)-1,5-dihydro-3-methyl-5-oxo-4H-pyrazol-4-ylidene]hydrazino]-2′-hydroxy-[1,1′-biphenyl]-3-carboxylic acid]
target platelet improvement counts: not meet the target platelet improvement counts
